These results are taken from ChEMBL document CHEMBL5532666 (J Med Chem, 2024).

pEC50: −log10 of the molar value. Activity calls are given as the source filed them. The rule behind the calls is not given here. Bounds are passed on as bounds.

Data set [1] has as its target T1, Serine/threonine-protein kinase 26 (Homo sapiens, UniProt Q9P289). Briefly: Binding affinity to C-terminal full length human MST4 expressed in intact HEK293T cells incubated for 2 hrs by NanoBRET assay. The class given is cell-based.
Target sequence in this assay (Q9P289 whole entry): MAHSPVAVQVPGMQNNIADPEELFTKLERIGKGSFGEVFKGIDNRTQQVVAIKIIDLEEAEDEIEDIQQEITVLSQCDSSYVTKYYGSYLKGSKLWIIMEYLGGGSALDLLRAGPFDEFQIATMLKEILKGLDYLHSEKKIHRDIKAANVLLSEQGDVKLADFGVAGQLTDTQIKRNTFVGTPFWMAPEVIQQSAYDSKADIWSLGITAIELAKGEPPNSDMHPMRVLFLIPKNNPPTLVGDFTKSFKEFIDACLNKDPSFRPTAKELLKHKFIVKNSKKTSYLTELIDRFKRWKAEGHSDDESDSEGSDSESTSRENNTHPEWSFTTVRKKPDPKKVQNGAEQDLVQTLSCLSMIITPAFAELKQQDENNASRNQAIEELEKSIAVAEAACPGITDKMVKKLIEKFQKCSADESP
Data set [2] relates to HCT-116. Briefly: Cell cycle arrest in human HCT-116 cells expressing […] assessed as G2/M phase cells at 1 uM incubated for 72 hrs by Hoechst33342 staining based analysis (reference value: 38%). The data set is classed as functional.
Data set [3] in a line: Toxicity in human HCT-116 cells expressing FUCCI assessed as reduction in normalized cell count at 10 uM measured upto 80 hrs by Hoechst33342 staining based analysis. Conditions: hct-116, 80 h.
For data set [4], the target named is T1, Serine/threonine-protein kinase 26. Briefly: Binding affinity to C-terminal full length human MST4 expressed in permeabilized HEK293T cells incubated for 2 hrs by NanoBRET assay. The class given is cell-based.
Target sequence in this assay (Q9P289 whole entry): as above
The test system of data set [5] is HCT-116. Briefly: Cell cycle arrest in human HCT-116 cells expressing […] assessed as S phase cells at 10 uM incubated for 72 hrs by Hoechst33342 staining based analysis relative to control. The data set is classed as functional.
Data set [6] addresses T1, Serine/threonine-protein kinase 26. Briefly: Binding affinity to N-terminal 6His-tagged TEV fused MST4 (unknown origin) expressed in Escherichia coli BL21 (DE3) cells assessed as change in binding enthalpy by ITC analysis.
Target sequence in this assay (Q9P289 2-416 limits assumed): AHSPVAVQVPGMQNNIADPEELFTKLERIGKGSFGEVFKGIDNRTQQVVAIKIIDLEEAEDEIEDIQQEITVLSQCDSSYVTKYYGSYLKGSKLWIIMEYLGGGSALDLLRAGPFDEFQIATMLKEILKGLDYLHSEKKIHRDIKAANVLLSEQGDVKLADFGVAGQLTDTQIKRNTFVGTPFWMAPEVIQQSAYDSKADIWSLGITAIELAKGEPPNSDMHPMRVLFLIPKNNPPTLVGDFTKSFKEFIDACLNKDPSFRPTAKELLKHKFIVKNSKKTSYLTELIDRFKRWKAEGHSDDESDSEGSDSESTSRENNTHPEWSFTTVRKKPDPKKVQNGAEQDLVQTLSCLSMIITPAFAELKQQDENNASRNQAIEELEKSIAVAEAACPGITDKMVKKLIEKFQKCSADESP
For data set [7], the target named is T2, Serine/threonine-protein kinase 24 (Homo sapiens, UniProt Q9Y6E0). Briefly: Binding affinity to C-terminal full length human MST3 expressed in permeabilized HEK293T cells incubated for 2 hrs by NanoBRET assay. The class given is cell-based.
T2 sequence (Q9Y6E0 whole entry): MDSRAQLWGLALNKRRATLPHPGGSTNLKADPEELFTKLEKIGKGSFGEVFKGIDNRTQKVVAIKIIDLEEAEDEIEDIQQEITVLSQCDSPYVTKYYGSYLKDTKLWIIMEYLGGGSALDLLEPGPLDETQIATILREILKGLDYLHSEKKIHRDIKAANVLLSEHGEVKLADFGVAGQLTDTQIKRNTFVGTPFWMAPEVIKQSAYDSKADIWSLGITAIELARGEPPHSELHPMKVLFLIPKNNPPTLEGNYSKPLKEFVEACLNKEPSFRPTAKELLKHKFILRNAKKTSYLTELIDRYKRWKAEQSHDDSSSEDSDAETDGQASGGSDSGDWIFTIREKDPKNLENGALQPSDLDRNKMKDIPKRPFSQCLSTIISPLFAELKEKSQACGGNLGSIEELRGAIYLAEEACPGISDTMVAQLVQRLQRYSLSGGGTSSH
Data set [8] concerns the target T3, Aurora kinase A (Homo sapiens) (UniProt O14965).
T3 sequence (whole entry): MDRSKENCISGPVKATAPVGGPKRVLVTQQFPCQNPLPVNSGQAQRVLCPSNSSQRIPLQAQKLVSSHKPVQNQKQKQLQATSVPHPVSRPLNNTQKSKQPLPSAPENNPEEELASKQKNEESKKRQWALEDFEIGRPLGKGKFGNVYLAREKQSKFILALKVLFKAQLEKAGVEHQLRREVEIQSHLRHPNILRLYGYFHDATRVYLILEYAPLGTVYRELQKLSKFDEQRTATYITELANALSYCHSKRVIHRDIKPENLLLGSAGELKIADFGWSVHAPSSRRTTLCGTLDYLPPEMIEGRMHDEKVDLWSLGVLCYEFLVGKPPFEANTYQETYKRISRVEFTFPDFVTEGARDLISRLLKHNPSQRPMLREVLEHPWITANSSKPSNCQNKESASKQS
Briefly: Binding affinity to STK6 (unknown origin) assessed as thermal stabilization by measuring change in melting temperature by DSF analysis.

Data set [9] concerns the target T1, Serine/threonine-protein kinase 26. Conditions: dose 10.0 µM.
Target sequence in this assay (Q9P289 2-416 limits assumed): as the sequence (Q9P289 2-416 limits assumed) above
Description: Binding affinity to recombinant MST4 (unknown origin) kinase domain assessed as thermal stabilization by measuring change in melting temperature at 10 uM by DSF analysis
Data set [10] concerns the target T4, LIM domain kinase 1 (Homo sapiens, UniProt P53667). Briefly: Binding affinity to LIMK1 (unknown origin) expressed in permeabilized HEK293T cells incubated for 2 hrs by NanoBRET assay. The class given is cell-based.
Target sequence in this assay (P53667 whole entry, the tested form may be a part): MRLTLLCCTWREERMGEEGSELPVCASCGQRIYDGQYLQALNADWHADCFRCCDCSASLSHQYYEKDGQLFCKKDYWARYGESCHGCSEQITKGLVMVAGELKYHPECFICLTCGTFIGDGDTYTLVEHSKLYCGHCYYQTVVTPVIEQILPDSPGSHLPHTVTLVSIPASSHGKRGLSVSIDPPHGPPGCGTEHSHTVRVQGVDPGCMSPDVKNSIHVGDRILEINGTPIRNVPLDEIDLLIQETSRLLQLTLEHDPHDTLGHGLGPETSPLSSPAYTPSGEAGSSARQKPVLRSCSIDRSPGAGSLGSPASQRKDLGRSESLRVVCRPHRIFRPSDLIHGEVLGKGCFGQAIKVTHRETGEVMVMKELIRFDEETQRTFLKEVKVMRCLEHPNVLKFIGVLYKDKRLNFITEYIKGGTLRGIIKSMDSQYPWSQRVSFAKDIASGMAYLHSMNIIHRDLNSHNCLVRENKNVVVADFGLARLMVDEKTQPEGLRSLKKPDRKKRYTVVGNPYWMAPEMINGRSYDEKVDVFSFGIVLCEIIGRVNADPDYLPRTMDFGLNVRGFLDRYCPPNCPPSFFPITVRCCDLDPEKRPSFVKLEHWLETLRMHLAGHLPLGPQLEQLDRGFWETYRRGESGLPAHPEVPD
Data set [11] deals with T4, LIM domain kinase 1. Briefly: Inhibition of wildtype LIMK1 (unknown origin) assessed as residual activity at 1 uM relative to control.
Target sequence in this assay (P53667 whole entry, looked up, the tested form may be a part): as the sequence (P53667 whole entry, the tested form may be a part) above
In data set [12] the target is Dual specificity protein kinase CLK1 (Homo sapiens) (UniProt P49759). Briefly: Binding affinity to CLK1 (unknown origin) assessed as thermal stabilization by measuring change in melting temperature by DSF analysis.
Sequence of Dual specificity protein kinase CLK1 (Homo sapiens) (P49759 whole entry, looked up, the tested form may be a part): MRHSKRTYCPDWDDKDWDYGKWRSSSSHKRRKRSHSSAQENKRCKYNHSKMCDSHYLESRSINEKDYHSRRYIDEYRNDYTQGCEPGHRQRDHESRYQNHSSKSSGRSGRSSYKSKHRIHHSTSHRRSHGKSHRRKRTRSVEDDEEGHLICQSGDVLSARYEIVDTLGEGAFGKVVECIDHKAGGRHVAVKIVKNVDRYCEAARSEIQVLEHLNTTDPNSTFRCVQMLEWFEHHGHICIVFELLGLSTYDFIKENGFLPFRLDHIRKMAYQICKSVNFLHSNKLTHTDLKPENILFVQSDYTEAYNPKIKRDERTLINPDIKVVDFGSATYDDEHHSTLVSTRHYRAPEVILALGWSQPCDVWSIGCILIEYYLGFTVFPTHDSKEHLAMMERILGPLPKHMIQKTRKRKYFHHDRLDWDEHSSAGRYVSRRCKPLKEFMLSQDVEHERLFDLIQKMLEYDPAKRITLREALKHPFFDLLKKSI
For data set [13], the target named is T5, LIM domain kinase 2 (Homo sapiens, UniProt P53671). Briefly: Binding affinity to LIMK2 (unknown origin) expressed in intact HEK293T cells incubated for 2 hrs by NanoBRET assay. The data set is classed as cell-based.
T5 sequence (P53671 whole entry, the tested form may be a part): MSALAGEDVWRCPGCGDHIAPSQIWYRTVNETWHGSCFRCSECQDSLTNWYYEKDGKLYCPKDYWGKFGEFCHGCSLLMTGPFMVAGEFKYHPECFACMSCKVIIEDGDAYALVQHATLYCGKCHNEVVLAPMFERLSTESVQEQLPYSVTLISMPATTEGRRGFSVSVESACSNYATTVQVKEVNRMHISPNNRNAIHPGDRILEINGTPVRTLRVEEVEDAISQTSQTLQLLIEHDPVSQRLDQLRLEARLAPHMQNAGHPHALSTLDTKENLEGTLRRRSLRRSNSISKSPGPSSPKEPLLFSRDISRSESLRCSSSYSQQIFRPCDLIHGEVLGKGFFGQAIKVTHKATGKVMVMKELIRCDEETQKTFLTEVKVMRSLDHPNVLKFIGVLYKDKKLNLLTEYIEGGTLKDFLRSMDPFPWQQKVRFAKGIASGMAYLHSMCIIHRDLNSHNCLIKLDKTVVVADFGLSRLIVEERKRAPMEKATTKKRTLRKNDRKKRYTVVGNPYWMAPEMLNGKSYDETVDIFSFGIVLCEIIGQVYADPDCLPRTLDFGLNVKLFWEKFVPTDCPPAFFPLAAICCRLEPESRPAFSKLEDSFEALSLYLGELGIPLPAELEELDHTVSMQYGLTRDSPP
Data set [14] concerns the target T6, Serine/threonine-protein kinase 3 (Homo sapiens, UniProt Q13188).
T6 sequence (Q13188 whole entry): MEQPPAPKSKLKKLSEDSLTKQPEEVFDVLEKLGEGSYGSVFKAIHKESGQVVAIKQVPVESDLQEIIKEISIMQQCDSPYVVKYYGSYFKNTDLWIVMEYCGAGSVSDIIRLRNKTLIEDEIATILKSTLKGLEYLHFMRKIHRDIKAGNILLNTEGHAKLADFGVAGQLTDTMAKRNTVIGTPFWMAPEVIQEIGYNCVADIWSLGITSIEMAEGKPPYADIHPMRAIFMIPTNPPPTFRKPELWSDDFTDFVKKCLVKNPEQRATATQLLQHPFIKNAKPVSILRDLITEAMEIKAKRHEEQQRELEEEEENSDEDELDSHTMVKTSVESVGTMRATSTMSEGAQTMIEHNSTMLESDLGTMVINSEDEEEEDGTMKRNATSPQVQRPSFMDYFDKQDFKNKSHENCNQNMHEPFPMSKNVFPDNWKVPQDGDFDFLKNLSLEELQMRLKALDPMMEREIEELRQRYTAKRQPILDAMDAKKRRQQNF
Briefly: Binding affinity to N-terminal full length human MST2 expressed in intact HEK293T cells incubated for 2 hrs by NanoBRET assay. The class given is cell-based.

The target of data set [15] is T1, Serine/threonine-protein kinase 26. Briefly: Binding affinity to N-terminal 6His-tagged TEV fused MST4 (unknown origin) expressed in Escherichia coli BL21 (DE3) cells assessed as offset in binding entropy change by ITC analysis.
Target sequence in this assay (Q9P289 2-416 limits assumed): as the sequence (Q9P289 2-416 limits assumed) above
The target in data set [16] is Maternal embryonic leucine zipper kinase (Homo sapiens) (UniProt Q14680). Briefly: Binding affinity to MELK (unknown origin) assessed as thermal stabilization by measuring change in melting temperature by DSF analysis.
Sequence of Maternal embryonic leucine zipper kinase (Homo sapiens) (Q14680 whole entry, looked up): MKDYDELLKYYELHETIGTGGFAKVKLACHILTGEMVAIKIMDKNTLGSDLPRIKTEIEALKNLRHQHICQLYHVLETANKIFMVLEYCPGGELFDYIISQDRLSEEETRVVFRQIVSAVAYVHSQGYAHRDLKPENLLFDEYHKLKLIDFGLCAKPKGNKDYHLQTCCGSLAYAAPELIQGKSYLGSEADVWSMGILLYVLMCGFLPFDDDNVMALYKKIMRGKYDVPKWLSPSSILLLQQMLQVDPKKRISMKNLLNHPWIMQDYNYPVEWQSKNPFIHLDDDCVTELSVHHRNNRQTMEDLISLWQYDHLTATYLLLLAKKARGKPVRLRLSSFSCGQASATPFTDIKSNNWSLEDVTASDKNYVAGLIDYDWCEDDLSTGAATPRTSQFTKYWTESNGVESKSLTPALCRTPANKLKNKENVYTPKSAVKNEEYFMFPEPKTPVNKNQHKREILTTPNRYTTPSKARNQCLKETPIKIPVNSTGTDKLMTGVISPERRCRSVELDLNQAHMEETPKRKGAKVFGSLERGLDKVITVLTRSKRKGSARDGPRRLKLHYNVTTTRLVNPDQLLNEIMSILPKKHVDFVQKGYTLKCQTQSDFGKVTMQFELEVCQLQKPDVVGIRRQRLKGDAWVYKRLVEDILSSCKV
A short description of data set [17]: Toxicity in human HCT-116 cells expressing FUCCI assessed as cells with healthy nuclei at 1 to 10 uM measured after 24 hrs by Hoechst33342 staining based analysis relative to control. The data set is classed as cell-based. The following applies: hct-116, 24 h, dose 1-10 µM.
The target in data set [18] is T2, Serine/threonine-protein kinase 24. Briefly: Binding affinity to C-terminal full length human MST3 expressed in intact HEK293T cells incubated for 2 hrs by NanoBRET assay. The class given is cell-based.
Data set [19] has as its target T7, Serine/threonine-protein kinase 4 (Homo sapiens, UniProt Q13043).
T7 sequence (Q13043 whole entry): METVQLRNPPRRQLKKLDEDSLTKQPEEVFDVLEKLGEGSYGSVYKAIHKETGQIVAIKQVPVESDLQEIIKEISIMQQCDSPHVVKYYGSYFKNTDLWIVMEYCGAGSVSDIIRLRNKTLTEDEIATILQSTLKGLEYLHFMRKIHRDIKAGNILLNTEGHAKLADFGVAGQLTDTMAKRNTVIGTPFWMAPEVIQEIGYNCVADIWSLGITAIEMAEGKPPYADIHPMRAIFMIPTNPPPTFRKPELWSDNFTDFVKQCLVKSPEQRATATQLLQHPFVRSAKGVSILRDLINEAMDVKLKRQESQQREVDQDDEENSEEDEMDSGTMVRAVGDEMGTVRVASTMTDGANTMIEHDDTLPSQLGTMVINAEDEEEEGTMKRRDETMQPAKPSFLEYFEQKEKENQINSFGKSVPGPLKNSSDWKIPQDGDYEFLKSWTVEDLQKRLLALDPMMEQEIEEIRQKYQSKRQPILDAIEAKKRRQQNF
Briefly: Binding affinity to N-terminal full length human MST1 expressed in intact HEK293T cells incubated for 2 hrs by NanoBRET assay. The data set is classed as cell-based.

For data set [20], the target named is T5, LIM domain kinase 2. Briefly: Binding affinity to LIMK2 (unknown origin) expressed in permeabilized HEK293T cells incubated for 2 hrs by NanoBRET assay. The class given is cell-based.

In the case of `O=C1NCCCCCNc2nc(c3ccccc3n2)Nc2cc1[nH]n2`, the pEC50 in data set [1] is 5.84; in data set [4] it was 6.44; in data set [7] it was 7.10; on LIM domain kinase 1 [10], 5.61; on LIM domain kinase 2 [13], 5.75; in [14] it was < 4.30. For the same compound, the figures for the negative logarithm of the EC50 (pEC50) (in [18]; in [19]; on LIM domain kinase 2 [20]) were 6.96, < 4.30 and 6.00, respectively. For the same compound, the Activity with HCT-116 [2] is 33%; in [3], “Toxic”; in the data set on HCT-116 [5], 27%; at LIM domain kinase 1 [11], 36.6%; in [17] it was 80%. Besides, the outcome in data set [6] and in [15] was Active. The ΔTm in data set [8] is 5.1 °C; in data set [9], 7.4 °C; in data set [12], 5.1 °C; in data set [16] it was 5.1 °C.
